Experimental data from the NIST ThermoML archive (doi:10.1016/j.jct.2017.07.013).
± gives the expanded uncertainty stated by the source.

Assay: xn = mol fraction of the nth substance listed
Conditions: 101.3 kPa, Liquid; for speed of sound: Frequency=3 MHz, Single path-length method; for mass density: Vibrating tube method

CCCC[n+]1ccn(C)c1.O=S(=O)([N-]S(=O)(=O)C(F)(F)F)C(F)(F)F + COC(=O)OC
Conditions | mass density, 303.15 K [kg/m3] | mass density, 308.15 K [kg/m3] | mass density, 313.15 K [kg/m3] | mass density, 318.15 K [kg/m3] | mass density, 323.15 K [kg/m3] | speed of sound, 303.15 K [m/s] | speed of sound, 308.15 K [m/s] | speed of sound, 313.15 K [m/s] | speed of sound, 318.15 K [m/s] | speed of sound, 323.15 K [m/s]
x1 = 0.0512 | 1120.1 ± 2.3 | 1113.8 ± 2.3 | 1107.5 ± 2.3 | 1101.2 ± 2.3 | 1094.9 ± 2.3 | 1187 ± 1.1 | 1167.2 ± 1.2 | 1147.5 ± 1.2 | 1127.6 ± 1.2 | 1108.3 ± 1.2
x1 = 0.101 | 1168.9 ± 2.2 | 1163 ± 2.2 | 1157 ± 2.2 | 1151 ± 2.2 | 1145 ± 2.2 | 1196.1 ± 1.2 | 1177.7 ± 1.2 | 1159.4 ± 1.2 | 1141 ± 1.2 | 1123 ± 1.2
x1 = 0.1495 | 1207.1 ± 2.1 | 1201.3 ± 2.1 | 1195.5 ± 2.1 | 1189.8 ± 2.1 | 1184 ± 2.1 | 1203.7 ± 1.2 | 1186.5 ± 1.2 | 1169.4 ± 1.2 | 1152.4 ± 1.2 | 1135.6 ± 1.2
x1 = 0.1945 | 1236.1 ± 2.1 | 1230.5 ± 2.1 | 1224.9 ± 2.1 | 1219.3 ± 2.1 | 1213.7 ± 2.1 | 1209.2 ± 1.2 | 1192.9 ± 1.2 | 1176.8 ± 1.2 | 1160.8 ± 1.2 | 1144.9 ± 1.2
x1 = 0.2994 | 1288.3 ± 2.1 | 1282.9 ± 2.1 | 1277.6 ± 2.1 | 1272.2 ± 2.1 | 1266.9 ± 2.1 | 1215.4 ± 1.2 | 1200.7 ± 1.2 | 1186.2 ± 1.2 | 1171.7 ± 1.2 | 1157.4 ± 1.2
x1 = 0.3999 | 1324.3 ± 2 | 1319.1 ± 2 | 1313.9 ± 2 | 1308.8 ± 2 | 1303.6 ± 2 | 1217.4 ± 1.2 | 1203.8 ± 1.2 | 1190.3 ± 1.2 | 1176.9 ± 1.2 | 1163.6 ± 1.2
x1 = 0.4976 | 1351.4 ± 2 | 1346.3 ± 2 | 1341.2 ± 2 | 1336.2 ± 2 | 1331.1 ± 2 | 1217.7 ± 1.3 | 1204.9 ± 1.3 | 1192.1 ± 1.3 | 1179.5 ± 1.3 | 1166.9 ± 1.3
x1 = 0.5842 | 1370.7 ± 2 | 1365.6 ± 2 | 1360.7 ± 2 | 1355.7 ± 2 | 1350.7 ± 2 | 1217.4 ± 1.3 | 1205 ± 1.3 | 1192.8 ± 1.3 | 1180.6 ± 1.3 | 1168.6 ± 1.3
x1 = 0.6886 | 1389.7 ± 2.1 | 1384.8 ± 2.1 | 1379.8 ± 2 | 1374.9 ± 2 | 1370.1 ± 2 | 1217.4 ± 1.3 | 1205.5 ± 1.3 | 1193.7 ± 1.3 | 1182.1 ± 1.3 | 1170.5 ± 1.3
x1 = 0.7475 | 1399 ± 2.1 | 1394.1 ± 2.1 | 1389.2 ± 2.1 | 1384.3 ± 2.1 | 1379.5 ± 2.1 | 1217.2 ± 1.3 | 1205.6 ± 1.3 | 1194 ± 1.3 | 1182.6 ± 1.3 | 1171.3 ± 1.3
x1 = 0.8014 | 1406.6 ± 2.1 | 1401.8 ± 2.1 | 1396.9 ± 2.1 | 1392.1 ± 2.1 | 1387.3 ± 2.1 | 1217 ± 1.3 | 1205.6 ± 1.3 | 1194.2 ± 1.3 | 1183 ± 1.3 | 1171.8 ± 1.3
x1 = 0.889 | 1417.4 ± 2.1 | 1412.6 ± 2.1 | 1407.8 ± 2.1 | 1403 ± 2.1 | 1398.2 ± 2.1 | 1216.8 ± 1.4 | 1205.6 ± 1.4 | 1194.5 ± 1.4 | 1183.6 ± 1.4 | 1172.7 ± 1.4
x1 = 0.9526 | 1424.2 ± 2.1 | 1419.4 ± 2.1 | 1414.6 ± 2.1 | 1409.9 ± 2.1 | 1405.1 ± 2.1 | 1216.8 ± 1.4 | 1205.7 ± 1.4 | 1194.8 ± 1.4 | 1184 ± 1.4 | 1173.3 ± 1.4
x1 = 1 | 1428.9 ± 2.1 | 1424.1 ± 2.1 | 1419.4 ± 2.1 | 1414.6 ± 2.1 | 1409.9 ± 2.1 | 1216.8 ± 1.4 | 1205.8 ± 1.4 | 1195 ± 1.4 | 1184.2 ± 1.4 | 1173.6 ± 1.4
